Columns and labels:
BLM melanoma cells = experiment: MTT test, BLM; assay type: cell-based
Description: An MTT test provides an indication of cell viability, proliferation and activity through determination of the mitochondrial conversion of 3-(4,5-dimethylthiazol-2-yl)-2,5-diphenyltetrazolium bromide (MTT), a yellow salt, into formazan, a salt that precipitates under the form of blue crystals.
In concreto, 5,000 cells are seeded in a cup of a 96 well-plate, treated with the desired amount of the test substance, and incubated for a chosen period of time. Next, 40 μL of a filtered (0.2 μm) 5 mg·mL^−1 solution of MTT in PBS is added to the cup. After 2 h of incubation at 37° C. in the dark, all liquid is removed. The obtained formazan salts are dissolved in 200 μL of DMSO, whereupon optical density is measured at 490 nm.
As 4-fluoro-3′,4′,5′-trimethoxychalcone had exerted an anti-invasive activity on BLM melanoma cells in the Matrigel invasion assay, we were intrigued to verify how its effect on the viability of BLM cells would compare to that observed for the MCF-7 cell lines.

[1] = tested on: MCF-7/6 mammary carcinoma cells; experiment: chick heart invasion assay; assay type: cell-based, human; design: unit not given here
Description: “Anti-invasive” or “anti-invasive activity” is the ability to inhibit the invasiveness of tumor cells. Invasion by tumor cells is defined as the progressive occupation and destruction of their environment, and is the result of matrix degradation and directional cell motility. Anti-invasive activity of a compound is the ability to inhibit or block invasion, and can be assessed by counting the number of invading cells, by the depth of their invasion and/or by the amount of environmental destruction. Many assays in vitro can be applied to test for anti-invasive activity (for a complete list see Bracke et al. 2008). The three most popular ones are: • Chick heart invasion assay (Bracke et al., 2001, see details below). The cut-off value is between grade II (non-invasive) and grade III (invasive). […] Collagen gels, prepared on the bottom of plastic wells are covered with a test cell suspension, and incubated with liquid culture medium for 24 h. Invasion is evaluated with an inverted phase-contrast microscope, and is based on the percentage of cells showing extensions in the gel. […] Matrigel is a mixture of basement membrane components, and is applied as a semi-solid layer on top a filter with pores allowing the transgression of cells. The test cell suspension is seeded on top of the gel, and incubated for 1 day in a two-compartment chamber system. Invasion is then evaluated via the percentage of cells that are attached to the lower side of the filter.
In the chick heart invasion assay cancer cells are confronted with a fragment of normal tissue, so as not to neglect the contribution of the host tissue in the micro-ecosystem that governs tumor behavior. As such, precultured heart tissue fragments (PHFs), dissected from 9-day-old chicken embryos, may be confronted with aggregates of human invasive MCF-7/6 mammary carcinoma cells in the presence of a certain concentration of a test compound. After eight days, the interaction between the cancer cells and the PHF is evaluated histologically and classified along a 5-grades subjective scale (Bracke et al., 2001). Grades III and IV are typical for invasion, while grades 0, I and II correspond to absence of invasion. Compounds that inhibit invasion of confronting cancer cells i.e. from III/IV to 0/I/II, are determined as anti-invasive. Possible alternative assays generally known in the art are the type I collagen invasion assay, wound healing assay and the matrigel invasion assay.
“Anti-invasive” refers to the ability to inhibit invasion of the tumor or cancer cell into surrounding tissue (within or outside the organ of origin). […] This screening method confronts cancer cells with a fragment of normal tissue, so as not to neglect the contribution of the host tissue in the micro-ecosystem that governs tumor behavior. The interaction between the cancer cells and the normal tissue is evaluated histologically and classified along a 5-grades subjective scale. Grades III and IV are typical for invasion, while grades 0, I and II correspond to absence of invasion. Compounds that inhibit invasion of confronting cancer cells i.e. from III/IV to 0/I/II, are determined as anti-invasive. Possible alternative assays generally known in the art are the type I collagen invasion assay and the Matrigel invasion assay.
The potency of these molecules had been evaluated by means of the chick heart invasion assay, as described herein before.

[2] = tested on: MCF-7/6 mammary carcinoma cell line; experiment: in vivo survival study after intracardial injection of MCF-7/6 cells; design: species or system Swiss nu/nu mice; conditions: for # at risk / # deaths / psurv: 10 nmol i.p. thrice a week; for pcum: cumulative probability of survival
Description: In order to evaluate the in vivo potency of 4-fluoro-3′,4′,5′-trimethoxychalcone 49 against the MCF-7/6 mammary carcinoma cell line, a broadly used metastasis experiment involving intracardial injection of the cancer cells was conducted. One week after subcutaneous implantation of an estrogen pellet (1 mg) in the dorsal region of the neck, […] Swiss nu/nu mice were injected in the left cardiac ventricle with 1.10^5 MCF-7/6 cells under xylazine and ketamine anesthesia (Smith W., 1993).
By virtue of injection into the left cardiac ventricle, cancer cells directly enter systemic arterial circulation, which enhances the chance for colonization (Arguello et al., 1988). […] However, since these metastases are difficultly detectable and quantifiable, survival time was chosen as the sole end point in this study.
Upon inoculation, mice were divided randomly into two equal groups. One cohort was intraperitoneally injected with 10 nmol of 49 thrice a week (160 μg·kg^−1 for a 20 g animal), while the other group only received the vehicle (100 μL of serum-free DMEM containing 1:1000 DMSO).
Twenty 6-week old female Swiss nu/nu mice were given a subcutaneous estrogen implant (1 mg) in the dorsal region of the neck. One week later, intracardial injection of 100,000 MCF-7/6 cells in […] of PBS^D^+ was performed. Animals were anesthesized priorly by i.p. injection of xylazine (5 μL, Rompun®) and ketamine (36 μL, Ketalar®). Intracardial injection was performed with a 30 G needle (½″), which was introduced into the thoracic cavity underneath the sternum. Upon protrusion of the wall of the left ventricle, blood is pumped into the syringe. At this moment, careful injection of the cancer cells can be conducted. Next, mice were randomly divided into a vehicle control and a 49-treated cohort.
From the inoculation date on, mice were treated i.p. three times a week with 100 μL of a 100 μmol·L^−1 solution of 49 in serum-free DMEM containing 1:1000 DMSO, or with vehicle alone (see “preparation procedure”). Survival numbers for both cages were recorded on a daily basis.
“Preparation procedure”: for the 49-treated group, 100 mmol·L^−1 solutions of 49 in DMSO were freshly prepared on each injection day, and diluted 1:1000 with serum-free DMEM so as to obtain injectable solutions of 100 μmol·L^−1 of 49. Control mice were given i.p. injections with 100 μL of the vehicle (1:1000 DMSO in serum-free DMEM).

## COc1cc(C(=O)/C=C/c2ccc(F)cc2)cc(OC)c1OC [Compound 49, (2E)-3-(4-Fluorophenyl)-1-(3,4,5-trimethoxyphenyl)propenone]
BLM melanoma cells; 0.1 μmol·L−1, 24 h
  reduction of BLM cell viability (mitochondrial activity): 22%
BLM melanoma cells; 1 μmol·L−1, 24 h
  reduction of BLM cell viability (mitochondrial activity): 27%
BLM melanoma cells; 10 μmol·L−1, 24 h
  reduction in mitochondrial activity: 40%
BLM melanoma cells; 100 μmol·L−1, 24 h
  reduction of BLM cell viability (mitochondrial activity): 76%
[1]; compounds 37-51, Table 11
  Actual in vitro activity class: −2 (about 0.01)
[1]; training set compounds 37-51, class = log cmin, lowest concentration with invasion grade I or II
  Actual class: −2 (about 0.01)
[2]; Day 5
  # at risk: 10
  # deaths: 1
  psurv: 0.9
  pcum: 0.9
[2]; Day 40
  # at risk: 9
  # deaths: 1
  psurv: 0.89
  pcum: 0.8
[2]; Day 61
  # at risk: 8
  psurv: 1
  pcum: 0.8

— US9290427B2, “Anti-invasive compounds” (Universiteit Gent, priority 2012, dated 2016)
